According to patent US20250099405A1, “COMPOSITIONS, METHODS, AND DEVELOPMENT OF ARID4B INHIBITORS” (University of Kentucky Research Foundation, priority 2022, published 2025):

How the values were obtained:
ARID4B = target: T1, ARID4B (Homo sapiens, UniProt Q4LE39); test: Cellular thermal shift assay (CETSA), endogenous ARID4B in MCF7 cells; type: cell-based; conditions: 10 μM, 2 h, 49-52° C. without compound
T1 construct: endogenous in cells; host or cells: MCF7
T1 sequence (Q4LE39 1-1312): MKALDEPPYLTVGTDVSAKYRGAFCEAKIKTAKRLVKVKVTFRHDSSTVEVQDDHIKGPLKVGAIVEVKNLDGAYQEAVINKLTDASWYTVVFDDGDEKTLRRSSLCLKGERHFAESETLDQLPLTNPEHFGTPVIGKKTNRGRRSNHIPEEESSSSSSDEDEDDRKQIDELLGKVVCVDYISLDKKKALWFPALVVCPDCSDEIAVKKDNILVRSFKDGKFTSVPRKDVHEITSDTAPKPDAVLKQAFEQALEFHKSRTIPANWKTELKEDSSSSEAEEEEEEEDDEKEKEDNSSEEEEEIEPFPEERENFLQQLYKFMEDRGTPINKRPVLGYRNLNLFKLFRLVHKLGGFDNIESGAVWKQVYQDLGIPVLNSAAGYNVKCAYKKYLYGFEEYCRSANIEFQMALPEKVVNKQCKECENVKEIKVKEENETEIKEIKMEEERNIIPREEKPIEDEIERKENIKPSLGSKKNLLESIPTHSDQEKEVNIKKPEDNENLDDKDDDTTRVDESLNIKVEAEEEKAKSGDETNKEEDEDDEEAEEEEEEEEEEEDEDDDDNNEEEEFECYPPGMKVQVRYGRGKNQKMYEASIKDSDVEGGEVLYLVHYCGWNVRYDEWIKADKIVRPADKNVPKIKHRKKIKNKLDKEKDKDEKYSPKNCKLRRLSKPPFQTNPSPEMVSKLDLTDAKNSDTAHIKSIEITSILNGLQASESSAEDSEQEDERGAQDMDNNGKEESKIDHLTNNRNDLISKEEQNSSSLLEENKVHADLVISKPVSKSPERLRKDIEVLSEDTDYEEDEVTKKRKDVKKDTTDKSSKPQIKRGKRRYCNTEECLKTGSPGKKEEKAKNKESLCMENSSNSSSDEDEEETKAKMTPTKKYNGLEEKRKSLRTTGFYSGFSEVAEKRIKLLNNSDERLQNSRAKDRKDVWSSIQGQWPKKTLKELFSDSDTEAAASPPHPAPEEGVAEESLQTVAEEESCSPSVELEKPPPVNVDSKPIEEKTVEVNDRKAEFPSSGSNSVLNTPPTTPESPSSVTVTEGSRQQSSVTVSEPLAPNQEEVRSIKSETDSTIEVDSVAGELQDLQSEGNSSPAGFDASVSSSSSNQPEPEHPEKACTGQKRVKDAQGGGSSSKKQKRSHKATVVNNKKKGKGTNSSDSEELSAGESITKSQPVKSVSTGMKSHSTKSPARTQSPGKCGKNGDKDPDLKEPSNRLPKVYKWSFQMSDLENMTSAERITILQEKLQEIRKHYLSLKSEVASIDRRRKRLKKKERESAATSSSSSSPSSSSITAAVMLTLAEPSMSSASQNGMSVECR
Description: (B-C) show cells expressing HA-ARID4B (C) or HA-ARID4BIC (D) treated or not with ARD150 (10 μM) for 2 h were used for CESTA. […] (D-E) show cells expressing HA-ARID4B (D) or Flag-ARID4A (E) treated or not with RWR-18 (10 μM) for 2 h were used for CESTA. […] Data are means±SEM from three experiments. *P<0.05, **P<0.01, ns, not significant.
Using CETSA (cellular thermal shift assay) to examine whether ARD150 or RWR-18 binds to ARID4B, MCF7 cells treated or not with ARD150 or RWR-18 for 2 h were collected, followed by heating at 46, 49, 52, 55, and 58° C. to denature and precipitate ARID4B protein, cell lysis, removal of cell debris and aggregates by centrifugation, and finally detection of remaining thermostable ARID4B protein by western blot. The ARID4B aggregation temperatures without ARD150 were determined to be 49-52° C., but shifted to 52-55° C. after treatment with ARD150 and even more so with RWR-18 (FIG. 15A-D). To determine whether ARD150 and RWR-18 targets the chromodomain of ARID4B, CESTA was performed using chromodomain deletion mutant (ARID4BAC). HEK-293T cells expressing HA-ARID4B or HA-ARID4BAC were treated or not with ARD150 (10 μM) for 2 h and processed for CESTA.

[1] = Tolerability of ARD150 in mice; type: in vivo; conditions: 125 mg/kg
Description: Representative HE images of liver and spleen from mice treated with vehicle or ARD150. Images from vehicle and the highest doses of ARD150 (125 mg/kg) were shown (B). […] Three biological replicates for each time point.
The rational development of a small molecule inhibitor (SMI) of a given protein-protein pathway involves a multidisciplinary approach: computational studies, chemical synthesis, characterization of compounds, and biological characterization. ARID4B lacks a defined crystal structure which requires a heavier emphasis on in silico studies to develop SMIs for this pathway. […] Initial biological characterization through cell-based assays and in vitro/in vivo studies have shown that ARD150 targets ARID4B and is tolerable in mice at extremely high concentrations (125 mg/kg). […] Thus, even though ARD150 is a first-in-class inhibitor, further optimization is necessary to improve its characteristics as a theoretical treatment option for endocrine-resistant breast cancer.

ERα signaling = test: qRT-PCR of ERα target genes after E2 treatment; type: cell-based; conditions: pre-treatment 5 and 10 μM
Description: The mRNA levels of GREB1, PGR, ARID4B, and MYD88 from MCF7 (A) and MCF7 Y537S cells (B) pre-treated with RWR-18 (0, 5 and 10 μM, 1 h) followed by +E2 treatment (10 nM, 4 h) were analyzed by qRT-PCR. Data are means±SEM from three biological replicate. ***, P<0.001. ns, not significant.
Consistent with knockout of ARID4B inhibited E2-induced and constitutive expression of ERα target genes, pre-treatment with RWR-18 (5 and 10 μM) abolished the induction of PGR and GREB1 genes by E2 in MCF7 and ZR75-1 cells (FIG. 18).

| Structure (SMILES) | ARID4B aggregation temperatures (ARID4B) | tolerability in mice [1] | levels of ARID4B or MYD88 mRNA (ERα signaling) | induction of PGR and GREB1 genes by E2 (ERα signaling; MCF7 and ZR75-1 cells) |
| --- | --- | --- | --- | --- |
| COc1ccc(C(=O)NCCCN2CCOCC2)cc1OC [ARD150] | 52-55 °C | tolerable |  |  |
| O=C(COc1ccc(OCc2ccccc2)cc1)NCCCN1CCOCC1 [RWR-18] |  |  | not affected | abolished |
